Laboratory results: US20160368872A1, “COMPOUNDS AND METHODS FOR TREATING CANCERS” (HEALTH RESEARCH, INC., priority 2013, published 2016)

How the values were obtained:
Assay in all cases: inhibition of growth of cell lines (IC50 categories)
Format in all cases: cell-based
[1] = test system: CWR22R; conditions: Homo sapiens, 22Rv1
Method: (§1) This example provides a table (below) of the compounds of the present disclosure and their activity towards four different cell lines (i.e., CWR22R, Hela, PC3, and MDA-MB-231). The IC50 for inhibition of growth is divided into 4 categories: A<1 μM, B 1-5 μM, […], D>20 μM.
(§2) All compounds were tested for toxicity using 4 cells lines, target cells-CWR22R and non-target cells, Hela, PC3 and MDA-MB-231 (FIGS. 1A-F).

[2] = test system: Hela; conditions: Homo sapiens
Method: as §1, §2

[3] = test system: MDA-MB-231; conditions: Homo sapiens
Method: as §1, §2

[4] = test system: PC3; conditions: Homo sapiens, PC-3
Method: as §1, §2

CCCn1c2ccccc2c2c3nc[nH]c(=O)c3ccc21 [Compound 5-1, 7-Propyl-3H-pyrimido[5,4-c]carbazol-4(7H)-one]
IC50 [1]: < 1 µM
IC50 [2]: > 20 µM
IC50 [3]: > 20 µM

O=c1c2ccc3c(c2ccn1CCN1CCCC1)c1ccccc1n3CCCF [Compound 4-4]
IC50 [1]: 5 to 20 µM
IC50 [2]: 5 to 20 µM
IC50 [3]: 5 to 20 µM
IC50 [4]: 5 to 20 µM

CCCn1c2ccccc2c2c3occc(=O)c3ccc21 [Compound 3-3]
IC50 [1]: < 1 µM
IC50 [2]: > 20 µM
IC50 [3]: 5 to 20 µM
IC50 [4]: > 20 µM

CCCn1c2ccccc2c2c3c(ccc21)CC(=O)N3C [Compound 6-1, 1-Methyl-6-propyl-3,6-dihydro-1H-pyrrolo[3,2-c]carbazol-2-one]
IC50 [1]: < 1 µM
IC50 [2]: > 20 µM
IC50 [3]: > 20 µM
IC50 [4]: > 20 µM

O=C1COc2c(ccc3c2c2ncccc2n3CCCF)N1 [Compound 13-2]
IC50 [1]: 5 to 20 µM
IC50 [2]: > 20 µM
IC50 [3]: > 20 µM
IC50 [4]: > 20 µM

O=C1CCCc2c(ccc3c2c2ccccc2n3CCCF)N1 [Compound 2-4]
IC50 [1]: < 1 µM
IC50 [2]: 5 to 20 µM
IC50 [3]: > 20 µM
IC50 [4]: 5 to 20 µM

O=C1NCCc2c1ccc1c2c2ncccc2n1CCCF [Compound 11-2]
IC50 [1]: < 1 µM
IC50 [2]: > 20 µM
IC50 [3]: > 20 µM
IC50 [4]: > 20 µM

O=C1NCc2c1ccc1c2c2ncccc2n1CCCF [Compound 10-6, 6-(3-fluoropropyl)-1,2-dihydro-6H-2,6,10-triazacyclopenta[c]fluoren-3-one]
IC50 [1]: < 1 µM
IC50 [2]: > 20 µM
IC50 [3]: > 20 µM
IC50 [4]: > 20 µM

CCCn1c2ccccc2c2c3c(ccc21)C(=O)NC3 [Compound 1-10, 6-propyl-1,2-dihydro-6H-pyrrolo[3,4-c]carbazol-3-one]
IC50 [1]: < 1 µM
IC50 [2]: > 20 µM
IC50 [3]: > 20 µM
IC50 [4]: > 20 µM

O=C1CCCc2c1ccc1c2c2ccccc2n1CCCF [Compound 1-5]
IC50 [1]: < 1 µM
IC50 [2]: > 20 µM
IC50 [3]: > 20 µM
IC50 [4]: > 20 µM

O=c1[nH]ccc2c1ccc1c2c2ncccc2n1CCCF [Compound 13-1, 7-(3-Fluoropropyl)-3,7-dihydro-3,7,11-triaza-benzo[c]fluoren-4-one]
IC50 [1]: < 1 µM
IC50 [2]: > 20 µM
IC50 [3]: > 20 µM
IC50 [4]: > 20 µM

Cn1ccc2c(ccc3c2c2ncccc2n3CCCF)c1=O [Compound 10-10]
IC50 [1]: < 1 µM
IC50 [2]: > 20 µM
IC50 [3]: > 20 µM
IC50 [4]: > 20 µM

CCCn1c2ccccc2c2c3cc[nH]c(=O)c3ccc21 [Compound 3-1, 7-Propyl-3H,7H-pyrido[3,4-c]carbazol-4-one]
IC50 [1]: < 1 µM
IC50 [2]: > 20 µM
IC50 [3]: > 20 µM
IC50 [4]: > 20 µM

O=C1NCCCc2c1ccc1c2c2ccccc2n1CCCF [Compound 2-3]
IC50 [1]: 1 to 5 µM
IC50 [2]: 5 to 20 µM
IC50 [3]: 5 to 20 µM
IC50 [4]: > 20 µM

N#Cc1cccc2c1c1c3cc[nH]c(=O)c3ccc1n2CCCF [Compound 8-3]
IC50 [1]: 1 to 5 µM
IC50 [2]: > 20 µM
IC50 [3]: > 20 µM
IC50 [4]: > 20 µM

O=C1NCCc2c1ccc1c2c2ccccc2n1CCCF [Compound 2-2]
IC50 [1]: < 1 µM
IC50 [2]: > 20 µM
IC50 [3]: > 20 µM
IC50 [4]: > 20 µM

CCCn1c2cccnc2c2c3cc[nH]c(=O)c3ccc21 [Compound 12-1, 7-Propyl-3,7-dihydro-3,7,11-triazabenzo[c]fluoren-4-one]
IC50 [1]: 5 to 20 µM
IC50 [2]: > 20 µM
IC50 [3]: > 20 µM
IC50 [4]: > 20 µM

CCCn1c2ccccc2c2c3c(ccc21)C(=O)CCO3 [Compound 1-8]
IC50 [1]: < 1 µM
IC50 [2]: > 20 µM
IC50 [3]: > 20 µM
IC50 [4]: > 20 µM

O=C1CCc2c1ccc1c2c2ncccc2n1CCCF [Compound 10-2]
IC50 [1]: < 1 µM
IC50 [2]: > 20 µM
IC50 [3]: 5 to 20 µM
IC50 [4]: 5 to 20 µM

O=c1[nH]ncc2c1ccc1c2c2ccccc2n1CCCF [Compound 5-3]
IC50 [1]: < 1 µM
IC50 [2]: > 20 µM
IC50 [3]: > 20 µM
IC50 [4]: > 20 µM

Cn1ncc2c(ccc3c2c2ncccc2n3CCCF)c1=O [Compound 10-7]
IC50 [1]: < 1 µM
IC50 [2]: > 20 µM
IC50 [3]: 5 to 20 µM
IC50 [4]: > 20 µM

O=C1NCc2c1ccc1c2c2ccccc2n1CCCF [Compound 1-11]
IC50 [1]: < 1 µM
IC50 [2]: > 20 µM
IC50 [3]: > 20 µM
IC50 [4]: > 20 µM

CCCn1c2ccccc2c2c3c(ccc21)C(O)CC3 (centres unmarked) [Compound 7-1, 6-Propyl-1,2,3,6-tetrahydro-cyclopenta[c]carbazol-3-ol]
IC50 [1]: < 1 µM
IC50 [2]: 5 to 20 µM
IC50 [3]: 5 to 20 µM
IC50 [4]: 5 to 20 µM

CC(=O)c1ccc2c(c1)c1c3c(ccc1n2CCCF)C(=O)CC3 [Compound 1-15]
IC50 [1]: 1 to 5 µM
IC50 [2]: > 20 µM
IC50 [3]: > 20 µM
IC50 [4]: > 20 µM

CCCn1c2cccnc2c2c3ccn(C)c(=O)c3ccc21 [Compound 10-9]
IC50 [1]: < 1 µM
IC50 [2]: > 20 µM
IC50 [3]: > 20 µM
IC50 [4]: > 20 µM

O=c1[nH]ccc2c1ccc1c2c2ccccc2n1CCCF [Compound 3-2]
IC50 [1]: < 1 µM
IC50 [2]: > 20 µM
IC50 [3]: > 20 µM
IC50 [4]: > 20 µM

O=C1NCCOc2c1ccc1c2c2ccccc2n1CCCF [Compound 2-5]
IC50 [1]: < 1 µM
IC50 [2]: > 20 µM
IC50 [3]: > 20 µM
IC50 [4]: > 20 µM

CCCn1c2cccnc2c2c3c(ccc21)C(=O)CC3 [Compound 10-1, 6-Propyl-1,2-dihydro-6H-6,10-diazacyclopenta[c]fluoren-3-one]
IC50 [1]: 1 to 5 µM
IC50 [2]: > 20 µM
IC50 [3]: 5 to 20 µM
IC50 [4]: 5 to 20 µM

O=C1CCc2c1ccc1c2c2cc(Br)ccc2n1CCCF [Compound 1-16]
IC50 [1]: 1 to 5 µM
IC50 [2]: > 20 µM
IC50 [3]: > 20 µM
IC50 [4]: > 20 µM

CCCn1c2ccccc2c2c3c(ccc21)CCC3 [Compound 7-2, 6-Propyl-1,2,3,6-tetrahydro-cyclopenta[c]carbazole]
IC50 [1]: 1 to 5 µM
IC50 [2]: > 20 µM
IC50 [3]: > 20 µM
IC50 [4]: > 20 µM

O=C1CCc2c1ccc1c2c2c(F)cccc2n1CCCF [Compound 1-14]
IC50 [1]: < 1 µM
IC50 [2]: > 20 µM
IC50 [3]: > 20 µM
IC50 [4]: > 20 µM

CCCn1c2ccccc2c2c3c(ccc21)C(=O)CC3 [Compound 1-1, 6-Propyl-1,2-dihydro-6H-cyclopenta[c]carbazol-3-one]
IC50 [1]: < 1 µM
IC50 [2]: > 20 µM
IC50 [3]: > 20 µM
IC50 [4]: > 20 µM

CCCn1c2cccnc2c2c3c(ccc21)C(=O)NC3 [Compound 10-5]
IC50 [1]: 1 to 5 µM
IC50 [2]: > 20 µM
IC50 [3]: > 20 µM
IC50 [4]: > 20 µM

O=c1[nH]c2ccc3c(c4ccccc4n3CCCF)c2o1 [Compound 8-2]
IC50 [1]: < 1 µM
IC50 [2]: 5 to 20 µM
IC50 [3]: 5 to 20 µM
IC50 [4]: > 20 µM

O=c1[nH]ccc2c1ccc1c2c2ncccc2n1CCC(F)F [Compound 15-1, 7-(3,3-Difluoropropyl)-3,7-dihydro-3,7,11-triaza-benzo[c]fluoren-4-one]
IC50 [1]: > 20 µM
IC50 [2]: > 20 µM
IC50 [3]: > 20 µM
IC50 [4]: > 20 µM

O=c1[nH]cnc2c1ccc1c2c2ccccc2n1CCCF [Compound 5-2]
IC50 [1]: < 1 µM
IC50 [2]: > 20 µM
IC50 [3]: > 20 µM
IC50 [4]: > 20 µM

O=C1COc2c1ccc1c2c2ccccc2n1CCCF [Compound 1-7]
IC50 [1]: < 1 µM
IC50 [2]: > 20 µM
IC50 [3]: > 20 µM
IC50 [4]: > 20 µM

O=c1c2ccc3c(c2ccn1CCO)c1ccccc1n3CCCF [Compound 4-3]
IC50 [1]: 5 to 20 µM
IC50 [2]: > 20 µM
IC50 [3]: > 20 µM
IC50 [4]: > 20 µM

Cn1c2ccccc2c2c3c(ccc21)C(=O)CC3 [Compound 1-3]
IC50 [1]: 5 to 20 µM
IC50 [2]: 5 to 20 µM
IC50 [3]: 5 to 20 µM
IC50 [4]: 5 to 20 µM

CCCn1c2ccccc2c2c3c(ccc21)C(=O)N(C)C3 [Compound 4-1, 2-Methyl-6-propyl-1,2-dihydro-6H-pyrrolo[3,4-c]carbazol-3-one]
IC50 [1]: < 1 µM
IC50 [2]: 1 to 5 µM
IC50 [3]: < 1 µM
IC50 [4]: > 20 µM

O=C1CCOc2c1ccc1c2c2ccccc2n1CCCF [Compound 1-9]
IC50 [1]: < 1 µM
IC50 [2]: > 20 µM
IC50 [3]: > 20 µM
IC50 [4]: > 20 µM

CCCn1c2cccnc2c2c3c(ccc21)C(=O)NCC3 [Compound 11-1, 7-Propyl-1,2,3,7-tetrahydro-3,7,11-triazabenzo[c]fluoren-4-one]
IC50 [1]: 5 to 20 µM
IC50 [2]: > 20 µM
IC50 [3]: > 20 µM
IC50 [4]: > 20 µM

CN1Cc2c(ccc3c2c2ncccc2n3CCCF)C1=O [Compound 14-1, 6-(3-Fluoropropyl)-2-methyl-1,2-dihydro-6H-2,6,10-triazacyclopenta[c]fluoren-3-one]
IC50 [1]: < 1 µM
IC50 [2]: > 20 µM
IC50 [3]: 5 to 20 µM
IC50 [4]: > 20 µM

CCCn1c2ccccc2c2c3c(ccc21)C(=O)CO3 [Compound 1-6]
IC50 [1]: < 1 µM
IC50 [2]: > 20 µM
IC50 [3]: > 20 µM
IC50 [4]: > 20 µM

O=C1NCCOc2c1ccc1c2c2ncccc2n1CCCF [Compound 11-3]
IC50 [1]: 1 to 5 µM
IC50 [2]: > 20 µM
IC50 [3]: > 20 µM
IC50 [4]: > 20 µM

O=C1Cc2ccc3c(c2CN1)c1ccccc1n3CCCF [Compound 1-12]
IC50 [1]: < 1 µM
IC50 [2]: > 20 µM
IC50 [3]: > 20 µM
IC50 [4]: > 20 µM

CN1Cc2c(ccc3c2c2ccccc2n3CCCF)C1=O [Compound 4-2]
IC50 [1]: < 1 µM
IC50 [2]: 5 to 20 µM
IC50 [3]: 1 to 5 µM
IC50 [4]: > 20 µM

NC(=O)c1cccc2c1c1c3cc[nH]c(=O)c3ccc1n2CCCF [Compound 8-4]
IC50 [1]: 5 to 20 µM
IC50 [2]: > 20 µM
IC50 [3]: > 20 µM
IC50 [4]: > 20 µM
